According to patent US20210222225A1, “Medium for Disk Diffusion Method to Evaluate Antibiotic Sensitivity” (priority 2018, published 2021):

Assays:
[1] = test system: colistin-resistant (R) Acinetobacter calcoaceticus-baumannii complex (ACB) strain; experiment: Colistin disk diffusion on modified Mueller-Hinton agar, ACB-R; type: cell-based
Description: To each MHA thus modified was added protamine (Sigma-Aldrich, St Louis, Mo., USA) at a concentration of 100 μg/ml, and solidification was performed. Then, on a surface of the medium was evenly inoculated each of colistin-susceptible (S) or -resistant (R) Acinetobacter calcoaceticus-baumannii complex (ACB) strain, Pseudomonas aeruginosa ATCC27853 strain, Escherichia coli ATCC25922 strain, and mcr-1-harboring Enterobacter aerogenes strain, and a colistin disk was placed thereon. Subsequently, a diameter of a growth inhibition zone (colistin inhibition zone), which had been formed clear by diffusion of colistin to the agar around the colistin disk, was measured.
As in Example 1, a concentration of agar particles (BD Diagnostic, Sparks, Md., USA) in Mueller-Hinton broth medium (BD Diagnostic) was adjusted to 17 g/L or 5.1 g/L that is 30% of 17 g/L. To select a concentration of protamine, which can enhance diffusion of colistin from a disk without interfering with bacterial growth, while using the protamine at various concentrations, protamine (Sigma-Aldrich, St Louis, Mo., USA) was added to the medium at concentrations of 1 mg/ml, 700 μg/ml, 400 μg/ml, 300 μg/ml, 200 μg/ml, 150 μg/ml, 100 μg/ml, and 50 μg/ml. Each medium thus modified was solidified. Then, on a surface of each medium was evenly inoculated each of colistin-susceptible (S) or -resistant (R) Acinetobacter calcoaceticus-baumannii complex (ACB) strain, Pseudomonas aeruginosa ATCC27853 strain, and mcr-1-harboring Enterobacter aerogenes strain, and a colistin disk was placed thereon. Then, it was determined whether each strain was grown, and a diameter of a growth inhibition zone, which had been formed around the disk, was measured.

ABA A17_S = experiment: Colistin disk diffusion, guanidine hydrochloride medium, A17_S; type: cell-based, Acinetobacter baumannii; details: 30% agar
Description: (§1) A concentration of agar particles (BD Diagnostic, Sparks, Md., USA) in Mueller-Hinton broth medium (BD Diagnostic) was adjusted to 5.1 g/L, which is 30% of 17 g/L, and guanidine hydrochloride was added to a concentration of 500 μg/ml, 50 μg/ml, or 5 μg/ml. Then, solidification was performed. On a surface of each medium thus prepared was evenly inoculated each of colistin-susceptible (S) or -resistant (R) Acinetobacter baumannii (ABA) strain, colistin-susceptible (S) or -resistant (R) Klebsiella pnemoniae (KPN) strain, and colistin-susceptible (S) or -resistant (R) Pseudomonas aeruginosa (PAE) strain, and a colistin disk was placed thereon. Then, pictures of a growth inhibition zone, which had been formed clear, around the disk were taken for each strain, and the results are illustrated in FIGS. 8 to 10.

ABA A532_R = experiment: Colistin disk diffusion, guanidine hydrochloride medium, A532_R; type: cell-based, Acinetobacter baumannii; details: 30% agar
Description: as §1

PAE P1618_R = experiment: Colistin disk diffusion, guanidine hydrochloride medium, P1618_R; type: cell-based, Pseudomonas aeruginosa; details: 30% agar
Description: as §1

PAE P1624_R = experiment: Colistin disk diffusion, guanidine hydrochloride medium, P1624_R; type: cell-based, Pseudomonas aeruginosa; details: 30% agar
Description: as §1

[2] = guanidine hydrochloride 5 μg/ml
[3] = guanidine hydrochloride 50 μg/ml
[4] = guanidine hydrochloride 500 μg/ml

colistin
Disk diffusion (mm) ([1]; 30% agar, protamine 50 μg/ml): 13 mm
Diameter (mm) of colistin inhibition zone ([1]; 30% agar, protamine 100 μg/ml): 11 mm
Disk diffusion (mm) ([1]; 30% agar, protamine 100 μg/ml): 11 mm
Disk diffusion (mm) ([1]; 30% agar, protamine 150 μg/ml): 10 mm
Disk diffusion (mm) ([1]; 30% agar, protamine 200 μg/ml): 8 mm
Disk diffusion (mm) ([1]; 30% agar, protamine 300 μg/ml): 6 mm
Disk diffusion (mm) ([1]; 30% agar, protamine 400 μg/ml): 6 mm
Disk diffusion (mm) ([1]; 30% agar, protamine 700 μg/ml): 6 mm
Disk diffusion (mm) ([1]; 30% agar, protamine 1,000 μg/ml): 6 mm
Diameter (mm) of colistin inhibition zone ([1]; 40% agar, protamine 100 μg/ml): 11 mm
Diameter (mm) of colistin inhibition zone ([1]; 50% agar, protamine 100 μg/ml): 10 mm
Diameter (mm) of colistin inhibition zone ([1]; 60% agar, protamine 100 μg/ml): 13 mm
Diameter (mm) of colistin inhibition zone ([1]; 70% agar, protamine 100 μg/ml): 11 mm
Diameter (mm) of colistin inhibition zone ([1]; 80% agar, protamine 100 μg/ml): 12 mm
Diameter (mm) of colistin inhibition zone ([1]; 90% agar, protamine 100 μg/ml): 12 mm
Disk diffusion (mm) ([1]; 100% agar, protamine 50 μg/ml): 13 mm
Diameter (mm) of colistin inhibition zone ([1]; 100% agar, protamine 100 μg/ml): 11 mm
Disk diffusion (mm) ([1]; 100% agar, protamine 100 μg/ml): 12 mm
Disk diffusion (mm) ([1]; 100% agar, protamine 150 μg/ml): 13 mm
Disk diffusion (mm) ([1]; 100% agar, protamine 200 μg/ml): 12 mm
Disk diffusion (mm) ([1]; 100% agar, protamine 300 μg/ml): 12 mm
Disk diffusion (mm) ([1]; 100% agar, protamine 400 μg/ml): 13 mm
Disk diffusion (mm) ([1]; 100% agar, protamine 700 μg/ml): 6 mm
Disk diffusion (mm) ([1]; 100% agar, protamine 1,000 μg/ml): 6 mm
Disk diffusion (mm) (ABA A17_S; [2]): 15 mm
Disk diffusion (mm) (ABA A17_S; [3]): 15 mm
Disk diffusion (mm) (ABA A17_S; [4]): 15 mm
Disk diffusion (mm) (ABA A532_R; [2]): 9 mm
Disk diffusion (mm) (ABA A532_R; [3]): 9 mm
Disk diffusion (mm) (ABA A532_R; [4]): 9 mm
Disk diffusion (mm) (PAE P1618_R; [2]): 12 mm
Disk diffusion (mm) (PAE P1618_R; [3]): 13 mm
Disk diffusion (mm) (PAE P1618_R; [4]): 13 mm
Disk diffusion (mm) (PAE P1624_R; [2]): 12 mm
Disk diffusion (mm) (PAE P1624_R; [3]): 12 mm
Disk diffusion (mm) (PAE P1624_R; [4]): 12 mm
